The record followed here is ChEMBL document CHEMBL4431353, “Optimization of a Series of Bivalent Triazolopyridazine Based Bromodomain and Extraterminal Inhibitors: The Discovery of (3R)-4-[2-[4-[1-(3-Methoxy-[1,2,4]triazolo[4,3-b]pyridazin-6-yl)-4-piperidyl]phenoxy]ethyl]-1,3-dimethyl-piperazin-2-one (AZD5153)” (J Med Chem, 2016).

Molecules are shown by their SMILES. Values after ≈ are worked out from the molar mass of the structure shown.

The nature of series [1]: Intrinsic clearance in human hepatocytes assessed per million cells. Type of series: ADME, cell-based, Hepatocyte. The settings on record: read-out: CLH.
Series [2] has as its target Bromodomain-containing protein 4 (Homo sapiens, UniProt O60885, N140A).
A short description of series [3]: Lipophilicity, log D of compound at pH 7.4. The format is physicochemical. The settings on record: buffer.
The target in series [4] is T1, Bromodomain-containing protein 4 (Homo sapiens, UniProt O60885). Put plainly: Inhibition of BRD4 in human MCF7 cells assessed as down regulation of ERalpha after 18 to 24 hrs by Hoechst staining based cellomics arrayscan analysis. Type of series: cell-based.
The target of series [5] is T1, Bromodomain-containing protein 4. Put plainly: Inhibition of BRD4 in human MM1S cells assessed as down regulation of c-Myc incubated for 16 hrs by flow cytometry. The format is cell-based.
Series [6] addresses Bromodomain-containing protein 4 (Homo sapiens, UniProt O60885, N433A).
In series [7] the target is T1, Bromodomain-containing protein 4. Put plainly: Displacement of Alexa647-labeled JQ1 derivative from wild type BRD4 tandem domain (44 to 460 residues) (unknown origin) incubated for 1 hr by fluorescence polarization assay. On the technique in general: In fluorescence polarisation assays a small probe gives low polarisation when free and higher when bound to something large.

The nature of series [8]: Thermodynamic solubility of compound in pH 7.4 solution. The format is physicochemical. As to conditions: buffer, read-out: Therm_solubility.
Another series deals with MM1.S. Put plainly: Growth inhibition of human MM1S cells after 72 hrs by alamar blue assay. Type of series: functional. Background: Resazurin is reduced to fluorescent resorufin, in cell work by metabolically active cells.
For series [9], the target named is T1, Bromodomain-containing protein 4. Put plainly: Inhibition of BRD4 in human LNCAP cells assessed as down regulation of nuclear AR level by immunofluorescence assay. The format is cell-based.

For `COc1nnc2ccc(N3CCC(c4ccc(OCCCN5CCN(C)C(=O)[C@H]5C)cc4)CC3)nn12`, in [1], the hepatocyte CLint was found to be 5.1 µL/min/1e6 cells. Besides, the Ki (commonly a dissociation constant, usually derived from enzyme kinetics or from competition with a known ligand) in series [2] is 63.1 nM; in [6], 79.4 nM; in series [7] it was 3.98 nM. In addition, the logD – broadly, the decadic logarithm of the distribution of all forms, ionised or not, between an organic phase and buffer at a given pH – in series [3] amounted to 2.4. Moreover, the values for the IC50 in series [4] and in [5] were 20 nM and 3.16 nM, respectively. In series [8], the solubility thermodynamic was greater than 1000 µM. Further, the GI50 (usually the concentration giving 50% growth inhibition) in the series on MM1.S is less than 1.58 nM.

Regarding `Cc1nnc2ccc(N3CCC(c4ccc(OCCN5CCN(C)C(=O)[C@H]5C)cc4)CC3)nn12`, in series [1], the hepatocyte CLint amounted to 7.2 µL/min/1e6 cells. The Ki in series [2] is 200 nM; in series [6] it was 251 nM; in series [7] it was 15.8 nM. Besides, the logD in series [3] was 2.4. Also, the IC50 – broadly, the midpoint of a concentration-inhibition curve – in series [4] is 39.8 nM; in series [5], 25.1 nM. For the same molecule, the solubility thermodynamic in [8] is 670 µM (≈ 311 µg/mL). In the series on MM1.S, this molecule had a GI50 of 5.01 nM.

`COc1nnc2ccc(N3CCC(c4ccc(N5CCC(N6CCN(C)C(=O)[C@H]6C)CC5)cc4)CC3)nn12`: the hepatocyte CLint in [1] was found to be 2.7 µL/min/1e6 cells. The Ki in series [2] is 316 nM; in [6], 158 nM; in [7] it was 50.1 nM. Also, in [3], the logD came out at 2. The IC50 in [4] was 158 nM. Moreover, the solubility thermodynamic in series [8] came to 760 µM (≈ 394 µg/mL).

For `COc1nnc2ccc(N3CCC(c4ccc(N5CC(N6CCN(C)C(=O)[C@H]6C)C5)cc4)CC3)nn12`, the hepatocyte CLint in [1] was less than 1.2 µL/min/1e6 cells. Moreover, the Ki is 398 nM in series [2], 200 nM in [6] and 63.1 nM in series [7]. In [3], this molecule yielded a logD of 1.7. Besides, the IC50 in series [4] is 794 nM. In addition, in series [8], the solubility thermodynamic amounted to 870 µM (≈ 427 µg/mL).

As to `COc1nnc2ccc(N3CCC(c4ccc(OCCCCN5CCN(C)C(=O)[C@H]5C)cc4)CC3)nn12`, the hepatocyte CLint in series [1] was 12 µL/min/1e6 cells. Moreover, the Ki in series [2] is 100 nM; in [6] it was 63.1 nM; in series [7] it was 6.31 nM. For the same molecule, the logD in series [3] turned out to be 2.8. The IC50 in series [4] is 20 nM. Besides, the solubility thermodynamic in series [8] is 470 µM (≈ 239 µg/mL).

`COc1nnc2ccc(N3CCC(c4ccc(OCCN5C[C@@H](C)N(C(C)=O)[C@@H](C)C5)cc4)CC3)nn12`: the hepatocyte CLint in [1] came out at 48 µL/min/1e6 cells. Besides, the Ki in series [2] is 158 nM; in series [6], 50.1 nM; in series [7], 5.01 nM. Also, the logD in series [3] was determined as 3.4. For the same molecule, the IC50 in series [4] is 39.8 nM. In addition, in [8], the solubility thermodynamic turned out to be 280 µM (≈ 142 µg/mL).

For the molecule `CN1CCN(CCOc2ccc(C3CCN(c4ccc5nnc(C(F)(F)F)n5n4)CC3)cc2)CC1=O`, the hepatocyte CLint in series [1] worked out at 18 µL/min/1e6 cells. Also, the figures for the Ki in series [2], in series [6] and in series [7] were 1000 nM, 316 nM and 200 nM, respectively. The logD in series [3] stood at 3. For the same molecule, the figures for the IC50 in series [4] and in series [9] were 501 nM and 316 nM, respectively. The solubility thermodynamic in [8] amounted to 65 µM (≈ 32.7 µg/mL).

As to `COc1nnc2ccc(N3CCC(c4ccc(OCCN5CCN(C)C(=O)[C@@H]5C)cc4)CC3)nn12`, the hepatocyte CLint in series [1] is less than 1.4 µL/min/1e6 cells. Moreover, the Ki in series [2] was 1000 nM; in series [6], 251 nM; in series [7] it was 126 nM. This molecule also had a logD in series [3] of 2.2. Also, the IC50 in series [4] is 316 nM; in series [5], 79.4 nM. Further, the solubility thermodynamic in series [8] came to 900 µM (≈ 432 µg/mL).

On to `CN1CCN(CCOc2ccc(C3CCN(c4ccc5nnc(C(F)(F)F)n5n4)CC3)cc2)C(=O)C1`, for which the hepatocyte CLint in [1] was found to be 26 µL/min/1e6 cells. For the same molecule, the Ki is 7940 nM in [2], 398 nM in [6] and 2510 nM in [7]. Further, in series [3], the logD stood at 3.1. Besides, the IC50 in series [4] was 1000 nM. The solubility thermodynamic in [8] amounted to 52 µM (≈ 26.2 µg/mL).

Regarding `COc1nnc2ccc(N3CCC(c4ccc(OCCN5[C@H](C)CN(C)C(=O)[C@H]5C)cc4)CC3)nn12`, in series [1], the hepatocyte CLint turned out to be 80 µL/min/1e6 cells. The Ki in series [2] is 251 nM; in [6], 126 nM; in series [7], 7.94 nM. Moreover, in series [3], the logD was found to be 2.3. The results for the IC50 in series [4] and in series [5] were 20 nM and 12.6 nM, respectively. Besides, the solubility thermodynamic in [8] stood at 750 µM (≈ 370 µg/mL). This molecule also showed a GI50 in the series on MM1.S of 6.31 nM.
